Laboratory results from US10940144B2, “Drug containing pyridylaminoacetic acid compound” (priority 2017, dated 2021).

Legend:
[1] = system: retinal blood vessels; experiment: Pharmacological Test 1: retinal vasodilatory action (retinal vascular diameter from fundus images) after intravitreal administration to rabbits; assay type: in vivo, rabbit; settings: for Base-Corrected Retinal Vascular Diameter Change Rate (%) 1 Hour After Administration / Base-Corrected Retinal Vascular Diameter Change Rate (%) 2 Hours After Administration / Base-Corrected Retinal Vascular Diameter Change Rate (%) 6 Hours After Administration / Base-Corrected Retinal Vascular Diameter Change Rate (%) 24 Hours After Administration: 20 μL intravitreal single injection, pigmented rabbits
Procedure: In order to find a new medicinal use of omidenepag, an ester thereof, or a salt thereof, the retinal vasodilatory action in the case of administering omidenepag to rabbits was examined. Omidenepag at 4.01 mg was dissolved in dimethyl sulfoxide to a total volume of 129 μL. Of the total volume, 10 μL was added and dissolved into physiological saline, and an appropriate amount of sodium hydroxide solution was added to adjust the pH of the formulation to 6.2. Thereafter, physiological saline was further added to a total volume of 10 mL to obtain omidenepag sample 1 (containing 0.00311% (w/v) (31.1 μg/mL) of omidenepag). In addition, the base A was added to 0.1 mL of omidenepag sample 1 to a total volume of 10 mL, and omidenepag sample 2 was obtained (containing 0.0000311% (w/v) (0.311 μg/mL) of omidenepag). CP-544326 (EP2 agonist) at 5.98 mg was dissolved in dimethyl sulfoxide to a total volume of 192 μL. Of the total volume, 10 μL was added and dissolved into physiological saline, and sodium hydroxide solution was added to adjust the pH of the formulation to 6.5. Thereafter, physiological saline was further added to a total volume of 10 mL to obtain CP-544326 sample 1 (containing 0.00311% (w/v) (31.1 μg/mL) of CP-544326). In addition, the base A was added to 0.1 mL of CP-544326 sample 1 to a total volume of 10 mL, and CP-544326 sample 2 was obtained (containing 0.0000311% (w/v) (0.311 μg/mL) of CP-544326). The base A, omidenepag samples 1 and 2, and CP-544326 samples 1 and 2 as test compound solutions, each at 20 μL, were administered intravitreally (injection, single time) to examine the change in retinal vascular diameter. In addition, pigmented rabbits (strain: Dutch, sex: male, three animals per group) were used as experimental animals. 1) After holding the above experimental animals, one drop (about 0.03 mL) of a 0.4% tropicamide ophthalmic solution (trade name: Mydrin-M ophthalmic solution 0.4%) was instilled into the retinal vascular diameter measurement eye to fully dilate the pupil. Thereafter, fundus images of the measurement eyes were captured, and the retinal vascular diameters and the like immediately before administration were measured from the obtained fundus images. 2) One drop (about 0.03 mL) of a 0.4% oxybuprocaine hydrochloride ophthalmic solution (trade name: Benoxil ophthalmic solution 0.4%) was instilled into the retinal vascular diameter measurement eye of each experimental animal for local anesthesia. Thereafter, a microsyringe connected with a 30 G injection needle was used to administer 20 μL of each test compound solution into the vitreous body. 3) At 1 hour, 2 hours, 6 hours, and 24 hours after administration of each test compound solution, fundus images of the retinal vascular diameter measuring eyes were captured, and the retinal vascular diameters and the like were measured from the obtained fundus images. (a) The fundus images captured immediately before the administration, 1 hour, 2 hours, 6 hours, and 24 hours after the administration were used to measure, as the vascular diameters, (i) the vascular diameter of the retinal artery on the nose side, (ii) the vascular diameter of the retinal artery on the ear side, and (iii) the optic nerve head diameter (longitudinal diameter passing through the center of the optic nerve head). (b) The average value of (i) the vascular diameter of the retinal artery on the nose side and (ii) the vascular diameter of the retinal artery on the ear side measured from the fundus images for each time period was divided by (iii) the optic nerve head diameter to calculate the corrected retinal vascular diameter. […]

[2] = system: optic nerve head tissue blood flow; experiment: Pharmacological Test 3: optic nerve head tissue blood flow (laser speckle flowgraphy) after intravitreal administration to rabbits; assay type: in vivo, rabbit
Procedure: In order to find anew medicinal use of omidenepag, an ester thereof, or a salt thereof, the action of increasing tissue blood flow in the optic nerve head in the case of administering omidenepag to rabbits was examined.
Omidenepag at 3.99 to 4.03 mg was dissolved in dimethyl sulfoxide to a total volume of 128 to 130 μL. Of the total volume, 10 μL was added and dissolved into physiological saline, and an appropriate amount of sodium hydroxide solution was added to adjust the pH of the formulation to 6.3 to 7.2. Thereafter, physiological saline was further added to a total volume of 10 mL to obtain omidenepag sample 3 (containing 0.00311% (w/v) (31.1 μg/mL) of omidenepag).
The base C and omidenepag sample 3 as test compound solutions, each at 20 μL, were administered intravitreally (injection, single time) to examine the change in optic nerve head tissue blood flow. In addition, pigmented rabbits (strain: Dutch, sex: male, three animals per group) were used as experimental animals. […]
3) At 1 hour and 2 hours after administration of each test compound solution, the optic nerve head tissue blood flow of the optic nerve head tissue blood flow measurement eye was measured.
(a) The ratio of the optic nerve head tissue blood flow after passage of each of the time periods of 1 hour and 2 hours after administration to the optic nerve head tissue blood flow immediately before administration (optic nerve head tissue blood flow change rate (%)) was calculated. […]
(b) For each time period after administration, the difference (base-corrected optic nerve head tissue blood flow change rate (%)) was calculated between the optic nerve head tissue blood flow change rate (%) of the group administered with the base C simultaneously carried out and the optic nerve head tissue blood flow change rate (%) of the group administered with omidenepag sample 3. […]

O=C(O)COc1cccc(CN(Cc2ccc(-n3cccn3)cc2)S(=O)(=O)c2cccnc2)c1 [CP-544326, reference compound]
Base-Corrected Retinal Vascular Diameter Change Rate (%) 1 Hour After Administration ([1]; 0.0000311% (w/v) (0.311 μg/mL)): 14.8%
Base-Corrected Retinal Vascular Diameter Change Rate (%) 2 Hours After Administration ([1]; 0.0000311% (w/v) (0.311 μg/mL)): 9.0%
Base-Corrected Retinal Vascular Diameter Change Rate (%) 6 Hours After Administration ([1]; 0.0000311% (w/v) (0.311 μg/mL)): 0.8%
Base-Corrected Retinal Vascular Diameter Change Rate (%) 24 Hours After Administration ([1]; 0.0000311% (w/v) (0.311 μg/mL)): 3.5%
Base-Corrected Retinal Vascular Diameter Change Rate (%) 1 Hour After Administration ([1]; 0.00311% (w/v) (31.1 μg/mL)): 48.4%
Base-Corrected Retinal Vascular Diameter Change Rate (%) 2 Hours After Administration ([1]; 0.00311% (w/v) (31.1 μg/mL)): 57.5%
Base-Corrected Retinal Vascular Diameter Change Rate (%) 6 Hours After Administration ([1]; 0.00311% (w/v) (31.1 μg/mL)): 72.2%
Base-Corrected Retinal Vascular Diameter Change Rate (%) 24 Hours After Administration ([1]; 0.00311% (w/v) (31.1 μg/mL)): 3.7%

O=C(O)CNc1cccc(CN(Cc2ccc(-n3cccn3)cc2)S(=O)(=O)c2cccnc2)n1 [Omidenepag, (6-{[4-(pyrazol-1-yl)benzyl](pyridin-3-ylsulfonyl)aminomethyl}pyridin-2-ylamino)acetic acid]
Base-Corrected Optic Nerve Head Tissue Blood Flow Change Rate (%) 1 Hour After Administration ([2]; 0.00311% (w/v) (31.1 μg/mL), 20 μL intravitreal single injection, pigmented rabbits, 1 hour): 343.6%
Base-Corrected Optic Nerve Head Tissue Blood Flow Change Rate (%) 2 Hours After Administration ([2]; 0.00311% (w/v) (31.1 μg/mL), 20 μL intravitreal single injection, pigmented rabbits, 2 hours): 327.8%
blood flow increasing action, optic nerve head (in words) ([2]; intravitreal administration, rabbits): significantly strong blood flow increasing action
Base-Corrected Retinal Vascular Diameter Change Rate (%) 1 Hour After Administration ([1]; 0.0000311% (w/v) (0.311 μg/mL)): 35.8%
Base-Corrected Retinal Vascular Diameter Change Rate (%) 2 Hours After Administration ([1]; 0.0000311% (w/v) (0.311 μg/mL)): 35.4%
Base-Corrected Retinal Vascular Diameter Change Rate (%) 6 Hours After Administration ([1]; 0.0000311% (w/v) (0.311 μg/mL)): 22.3%
Base-Corrected Retinal Vascular Diameter Change Rate (%) 24 Hours After Administration ([1]; 0.0000311% (w/v) (0.311 μg/mL)): 2.9%
Base-Corrected Retinal Vascular Diameter Change Rate (%) 1 Hour After Administration ([1]; 0.00311% (w/v) (31.1 μg/mL)): 81.2%
Base-Corrected Retinal Vascular Diameter Change Rate (%) 2 Hours After Administration ([1]; 0.00311% (w/v) (31.1 μg/mL)): 71.9%
Base-Corrected Retinal Vascular Diameter Change Rate (%) 6 Hours After Administration ([1]; 0.00311% (w/v) (31.1 μg/mL)): 88.1%
Base-Corrected Retinal Vascular Diameter Change Rate (%) 24 Hours After Administration ([1]; 0.00311% (w/v) (31.1 μg/mL)): 11.8%
retinal vasodilatory action compared with CP-544326 (in words) ([1]; at the same concentration, intravitreal, rabbits): significantly stronger retinal vasodilatory action
